Measured values from paper PMC5630020 (Genes & Development, 2017).

What was measured:
E. coli SspA homodimer = E. coli SspA homodimer (Escherichia coli, UniProt P0ACA3); format: binding
SEC = molecular target: the molecule itself; assay: SEC

Molecule	DRaCALA (E. coli SspA homodimer)	stoichiometry N (SEC)
Nc1nc2c(ncn2[C@@H]2O[C@H](COP(=O)(O)OP(=O)(O)O)[C@@H](OP(=O)(O)OP(=O)(O)O)[C@H]2O)c(=O)[nH]1 [ppGpp]	only very weak binding requiring ppGpp concentrations in the high micromolar range	
E. coli SspA, wild type (natural protein, UniProt P0ACA3 1-212, looked up, also called wild-type SspA; E. coli SspA homodimer) MAVAANKRSVMTLFSGPTDIYSHQVRIVLAEKGVSFEIEHVEKDNPPQDLIDLNPNQSVPTLVDRELTLWESRIIMEYLDERFPHPPLMPVYPVARGESRLYMHRIEKDWYTLMNTIINGSASEADAARKQLREELLAIAPVFGQKPYFLSDEFSLVDCYLAPLLWRLPQLGIEFSGPGAKELKGYMTRVFERDSFLASLTEAEREMRLGRS		2
